Test results as given in paper PMC4254008 (European journal of medicinal chemistry, 2014).

Tests used:
MRSA strain BAA1762 = experiment: S. aureus thigh muscle infection model, in vivo efficacy; set-up: species or system Swiss Webster mice; settings: mouse thigh muscle infection model
[1] = system: Staphylococcus aureus enoyl-ACP reductase (saFabI); settings: cited from earlier work
[2] = orally ingested, humans; cited from earlier work
[3] = in vivo; cited from earlier work
[4] = system: S. aureus infected thigh muscles; settings: in vivo; cited from earlier work

## CCCCCCc1ccc(Oc2ccccc2C#N)c(O)c1 [PT119]
MRSA strain BAA1762
  reduction in the CFU's: 3 log
[1]; on saFabI
  residence time: 750 min
[1]; saFabI
  Ki: 0.01 nM

## Oc1cc(Cl)ccc1Oc1ccc(Cl)cc1Cl [triclosan]
[2]
  absorption from the gastrointestinal tract: readily absorbed

## AFN-1252
[3]
  AUC/MIC: 20

## [^18F]FDG
[4]
  accumulation in infected thigh relative to healthy thigh: 2.3 – 2.6 times
